In paper PMC11237586, “4′-Fluorouridine inhibits alphavirus replication and infection in vitro and in vivo” (mBio, 2024):

Tests used:
[1] = biological target: SFV nsP4 (RdRp) with SFV P123, trans-replicase (Semliki Forest virus, UniProt P08411); experiment: trans-replicase Gaussia luciferase reporter assay in transfected U-2 OS cells; assay type: cell-based
[2] = biological target: CHIKV nsP4 (RdRp) with SFV P123, mixed trans-replicase (Chikungunya virus strain S27-African prototype, UniProt Q8JUX6); experiment: cell-based
Chain of CHIKV nsP4 (RdRp) with SFV P123, mixed trans-replicase (Q8JUX6 1864-2474): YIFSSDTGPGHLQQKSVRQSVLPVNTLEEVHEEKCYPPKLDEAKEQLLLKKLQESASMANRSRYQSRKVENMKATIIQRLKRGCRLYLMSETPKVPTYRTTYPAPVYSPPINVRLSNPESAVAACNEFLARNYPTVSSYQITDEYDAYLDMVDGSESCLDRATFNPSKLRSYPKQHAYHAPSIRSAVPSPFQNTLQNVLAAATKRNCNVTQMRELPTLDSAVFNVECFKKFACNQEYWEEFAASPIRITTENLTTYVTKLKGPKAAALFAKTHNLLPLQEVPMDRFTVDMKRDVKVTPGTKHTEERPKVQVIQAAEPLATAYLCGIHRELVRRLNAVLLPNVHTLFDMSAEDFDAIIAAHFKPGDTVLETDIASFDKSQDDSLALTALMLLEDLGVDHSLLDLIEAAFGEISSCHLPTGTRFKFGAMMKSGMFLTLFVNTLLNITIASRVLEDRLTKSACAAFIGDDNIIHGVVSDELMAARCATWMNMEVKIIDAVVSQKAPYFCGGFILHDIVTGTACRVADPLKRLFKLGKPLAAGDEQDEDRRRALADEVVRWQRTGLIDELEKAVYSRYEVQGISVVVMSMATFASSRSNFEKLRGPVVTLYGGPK
Chain of CHIKV nsP4 (RdRp) with SFV P123, mixed trans-replicase (P08411 1-1818, further chain): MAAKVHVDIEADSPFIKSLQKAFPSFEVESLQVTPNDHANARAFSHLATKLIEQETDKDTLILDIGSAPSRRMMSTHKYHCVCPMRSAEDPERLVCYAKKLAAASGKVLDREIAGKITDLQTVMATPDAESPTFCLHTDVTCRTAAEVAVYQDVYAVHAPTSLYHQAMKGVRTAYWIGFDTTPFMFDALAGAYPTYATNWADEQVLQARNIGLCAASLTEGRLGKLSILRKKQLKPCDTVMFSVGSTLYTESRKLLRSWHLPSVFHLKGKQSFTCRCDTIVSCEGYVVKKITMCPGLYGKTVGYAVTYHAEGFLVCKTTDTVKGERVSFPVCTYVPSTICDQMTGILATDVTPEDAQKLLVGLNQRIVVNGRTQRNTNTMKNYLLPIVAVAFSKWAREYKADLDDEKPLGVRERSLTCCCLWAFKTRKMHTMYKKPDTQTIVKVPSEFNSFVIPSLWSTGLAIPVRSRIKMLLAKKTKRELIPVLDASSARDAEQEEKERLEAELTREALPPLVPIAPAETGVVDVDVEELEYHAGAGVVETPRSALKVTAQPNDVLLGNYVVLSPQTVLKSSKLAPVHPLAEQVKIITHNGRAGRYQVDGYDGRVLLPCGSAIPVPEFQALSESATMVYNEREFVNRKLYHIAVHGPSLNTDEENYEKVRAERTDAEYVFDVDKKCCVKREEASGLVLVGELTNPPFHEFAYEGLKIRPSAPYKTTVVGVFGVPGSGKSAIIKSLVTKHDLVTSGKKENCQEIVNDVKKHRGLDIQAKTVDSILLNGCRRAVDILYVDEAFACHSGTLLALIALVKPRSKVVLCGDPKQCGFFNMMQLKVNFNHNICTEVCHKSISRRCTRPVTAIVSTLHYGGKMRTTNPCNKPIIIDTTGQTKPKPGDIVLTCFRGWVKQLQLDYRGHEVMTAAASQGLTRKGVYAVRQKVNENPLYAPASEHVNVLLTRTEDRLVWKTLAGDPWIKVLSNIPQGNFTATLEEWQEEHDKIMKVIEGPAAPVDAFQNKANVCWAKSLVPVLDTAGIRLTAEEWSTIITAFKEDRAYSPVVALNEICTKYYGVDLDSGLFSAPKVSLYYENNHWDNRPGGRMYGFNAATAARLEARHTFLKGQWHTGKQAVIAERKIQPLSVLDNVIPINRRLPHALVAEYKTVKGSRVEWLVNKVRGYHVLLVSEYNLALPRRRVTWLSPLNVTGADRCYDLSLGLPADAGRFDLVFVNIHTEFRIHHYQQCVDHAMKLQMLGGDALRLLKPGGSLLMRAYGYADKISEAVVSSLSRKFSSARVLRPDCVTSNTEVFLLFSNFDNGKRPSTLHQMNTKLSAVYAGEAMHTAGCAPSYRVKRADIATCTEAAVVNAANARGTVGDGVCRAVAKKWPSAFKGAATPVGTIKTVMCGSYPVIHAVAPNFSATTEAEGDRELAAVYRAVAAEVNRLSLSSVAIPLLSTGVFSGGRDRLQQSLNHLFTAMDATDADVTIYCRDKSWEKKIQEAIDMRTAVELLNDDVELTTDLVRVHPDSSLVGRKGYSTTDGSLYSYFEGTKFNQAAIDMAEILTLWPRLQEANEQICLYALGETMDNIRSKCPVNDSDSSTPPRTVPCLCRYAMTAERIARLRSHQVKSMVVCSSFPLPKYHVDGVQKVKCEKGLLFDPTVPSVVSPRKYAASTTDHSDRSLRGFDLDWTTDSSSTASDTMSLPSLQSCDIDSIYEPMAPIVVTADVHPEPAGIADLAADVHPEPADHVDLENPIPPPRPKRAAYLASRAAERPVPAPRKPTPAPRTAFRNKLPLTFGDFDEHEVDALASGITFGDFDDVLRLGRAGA

Chain of SFV nsP4 (RdRp) with SFV P123, trans-replicase (P08411 1-1818): as the sequence (P08411 1-1818, further chain) above
Chain of SFV nsP4 (RdRp) with SFV P123, trans-replicase (P08411 1819-2431): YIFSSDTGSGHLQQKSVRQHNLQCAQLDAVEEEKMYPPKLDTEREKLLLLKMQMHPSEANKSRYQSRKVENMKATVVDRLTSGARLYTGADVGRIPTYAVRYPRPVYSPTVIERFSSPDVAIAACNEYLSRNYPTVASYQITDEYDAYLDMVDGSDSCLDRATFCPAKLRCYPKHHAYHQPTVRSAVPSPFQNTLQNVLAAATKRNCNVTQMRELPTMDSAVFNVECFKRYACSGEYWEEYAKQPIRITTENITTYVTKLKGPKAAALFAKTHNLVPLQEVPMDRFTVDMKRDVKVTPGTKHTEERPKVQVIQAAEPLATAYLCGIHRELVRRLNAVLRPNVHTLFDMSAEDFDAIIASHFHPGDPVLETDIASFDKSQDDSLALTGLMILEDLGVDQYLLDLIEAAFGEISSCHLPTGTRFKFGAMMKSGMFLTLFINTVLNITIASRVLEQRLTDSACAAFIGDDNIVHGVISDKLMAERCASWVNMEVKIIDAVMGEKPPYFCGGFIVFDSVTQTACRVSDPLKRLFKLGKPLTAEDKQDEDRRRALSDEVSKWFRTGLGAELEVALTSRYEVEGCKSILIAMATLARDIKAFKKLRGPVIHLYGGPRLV

`O=c1ccn([C@@H]2O[C@](F)(CO)[C@@H](O)[C@H]2O)c(=O)[nH]1` [4′-fluorouridine] was tested, and the EC50 [1] was 2.1 µM and the EC50 [2] was 0.64 µM.
